Measurements published in ChEMBL document CHEMBL4800722, “Data for DCP probe BI 605906” (2021).

Legend:
[1] = molecular target: Proto-oncogene tyrosine-protein kinase Src (Homo sapiens) (UniProt P12931); test: SRC N1 Invitrogen Lab (UK) kinase screen (BI); conditions: Compound concentration 1.0 uM
[2] = molecular target: Protein kinase C delta type (Homo sapiens) (UniProt Q05655); conditions: Compound concentration 1.0 uM
[3] = molecular target: Tyrosine-protein kinase receptor TYRO3 (Homo sapiens) (UniProt Q06418); conditions: Compound concentration 1.0 uM
[4] = molecular target: Phosphatidylinositol 5-phosphate 4-kinase type-2 alpha (Homo sapiens) (UniProt P48426); test: PIP4K2A Invitrogen Lab (UK) kinase screen (BI); conditions: Compound concentration 1.0 uM
[5] = molecular target: Sodium-dependent noradrenaline transporter (Homo sapiens) (UniProt P23975); test: NETRANS/H Eurofins SafetyScreen44 (BI); conditions: Compound concentration 10.0 uM
[6] = molecular target: MAP kinase-interacting serine/threonine-protein kinase 2 (Homo sapiens) (UniProt Q9HBH9); test: MNK2 ALPHA DUNDEE kinase screen (BI); conditions: Compound concentration 10.0 uM
[7] = molecular target: Serine/threonine-protein kinase Sgk1 (Homo sapiens) (UniProt O00141); conditions: Compound concentration 10.0 uM
[8] = molecular target: Tyrosine-protein kinase SYK (Homo sapiens) (UniProt P43405)
[9] = molecular target: Phosphatidylinositol 3-kinase catalytic subunit type 3 (Homo sapiens) (UniProt Q8NEB9); conditions: Compound concentration 1.0 uM
[10] = molecular target: AMP-activated protein kinase (AMPK) alpha-1/beta-1/gamma-1 (Homo sapiens) (UniProt P54619+Q9Y478+Q13131)
[11] = molecular target: Ribosomal protein S6 kinase alpha-4 (Homo sapiens) (UniProt O75676); conditions: Compound concentration 1.0 uM
[12] = molecular target: Mitogen-activated protein kinase 14 (Homo sapiens) (UniProt Q16539)

Measured: residual activity

Sequence of AMP-activated protein kinase (AMPK) alpha-1/beta-1/gamma-1 (Homo sapiens) (P54619 whole entry): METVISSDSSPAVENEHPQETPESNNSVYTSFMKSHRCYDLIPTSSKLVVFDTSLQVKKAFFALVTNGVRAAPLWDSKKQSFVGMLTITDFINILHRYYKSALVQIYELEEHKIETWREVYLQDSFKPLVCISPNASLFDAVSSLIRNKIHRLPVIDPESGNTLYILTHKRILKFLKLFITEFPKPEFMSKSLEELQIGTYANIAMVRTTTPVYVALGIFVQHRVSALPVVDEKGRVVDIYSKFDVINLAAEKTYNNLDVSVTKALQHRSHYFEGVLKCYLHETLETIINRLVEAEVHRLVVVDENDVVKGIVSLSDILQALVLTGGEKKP
Sequence of AMP-activated protein kinase (AMPK) alpha-1/beta-1/gamma-1 (Homo sapiens) (Q13131 whole entry partner): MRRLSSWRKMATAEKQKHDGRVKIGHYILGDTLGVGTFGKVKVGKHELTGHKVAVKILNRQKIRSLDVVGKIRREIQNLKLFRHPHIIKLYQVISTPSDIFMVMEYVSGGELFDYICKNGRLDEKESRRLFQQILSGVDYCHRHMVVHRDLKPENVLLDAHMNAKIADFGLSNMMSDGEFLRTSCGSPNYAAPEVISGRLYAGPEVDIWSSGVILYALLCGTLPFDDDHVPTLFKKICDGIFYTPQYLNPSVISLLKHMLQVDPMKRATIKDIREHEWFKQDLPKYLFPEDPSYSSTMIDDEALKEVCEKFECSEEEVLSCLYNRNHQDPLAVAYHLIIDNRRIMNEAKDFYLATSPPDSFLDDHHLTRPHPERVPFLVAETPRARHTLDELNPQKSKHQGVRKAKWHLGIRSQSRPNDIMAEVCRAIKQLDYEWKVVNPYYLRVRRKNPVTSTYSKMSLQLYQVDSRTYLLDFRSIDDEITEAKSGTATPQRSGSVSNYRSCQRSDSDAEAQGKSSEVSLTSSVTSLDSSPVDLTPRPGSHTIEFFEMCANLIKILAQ
Sequence of AMP-activated protein kinase (AMPK) alpha-1/beta-1/gamma-1 (Homo sapiens) (Q9Y478 2-270 partner limits assumed): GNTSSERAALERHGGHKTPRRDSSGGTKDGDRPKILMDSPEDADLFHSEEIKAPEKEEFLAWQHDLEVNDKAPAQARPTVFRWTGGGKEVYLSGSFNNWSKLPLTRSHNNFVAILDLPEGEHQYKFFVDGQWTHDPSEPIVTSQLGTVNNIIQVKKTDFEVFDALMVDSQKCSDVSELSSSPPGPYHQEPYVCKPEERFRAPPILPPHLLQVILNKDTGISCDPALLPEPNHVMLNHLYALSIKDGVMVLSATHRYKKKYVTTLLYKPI
Sequence of Mitogen-activated protein kinase 14 (Homo sapiens) (Q16539 whole entry): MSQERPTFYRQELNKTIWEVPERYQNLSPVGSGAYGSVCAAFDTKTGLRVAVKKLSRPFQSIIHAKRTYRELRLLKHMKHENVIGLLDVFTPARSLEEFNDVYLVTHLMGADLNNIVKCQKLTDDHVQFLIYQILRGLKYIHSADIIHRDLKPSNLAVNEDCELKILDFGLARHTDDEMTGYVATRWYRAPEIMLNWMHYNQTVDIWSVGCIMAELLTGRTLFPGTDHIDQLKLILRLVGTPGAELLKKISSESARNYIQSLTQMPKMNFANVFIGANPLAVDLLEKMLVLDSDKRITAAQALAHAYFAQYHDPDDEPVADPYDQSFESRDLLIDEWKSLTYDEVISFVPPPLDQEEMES
Sequence of Phosphatidylinositol 3-kinase catalytic subunit type 3 (Homo sapiens) (Q8NEB9 whole entry): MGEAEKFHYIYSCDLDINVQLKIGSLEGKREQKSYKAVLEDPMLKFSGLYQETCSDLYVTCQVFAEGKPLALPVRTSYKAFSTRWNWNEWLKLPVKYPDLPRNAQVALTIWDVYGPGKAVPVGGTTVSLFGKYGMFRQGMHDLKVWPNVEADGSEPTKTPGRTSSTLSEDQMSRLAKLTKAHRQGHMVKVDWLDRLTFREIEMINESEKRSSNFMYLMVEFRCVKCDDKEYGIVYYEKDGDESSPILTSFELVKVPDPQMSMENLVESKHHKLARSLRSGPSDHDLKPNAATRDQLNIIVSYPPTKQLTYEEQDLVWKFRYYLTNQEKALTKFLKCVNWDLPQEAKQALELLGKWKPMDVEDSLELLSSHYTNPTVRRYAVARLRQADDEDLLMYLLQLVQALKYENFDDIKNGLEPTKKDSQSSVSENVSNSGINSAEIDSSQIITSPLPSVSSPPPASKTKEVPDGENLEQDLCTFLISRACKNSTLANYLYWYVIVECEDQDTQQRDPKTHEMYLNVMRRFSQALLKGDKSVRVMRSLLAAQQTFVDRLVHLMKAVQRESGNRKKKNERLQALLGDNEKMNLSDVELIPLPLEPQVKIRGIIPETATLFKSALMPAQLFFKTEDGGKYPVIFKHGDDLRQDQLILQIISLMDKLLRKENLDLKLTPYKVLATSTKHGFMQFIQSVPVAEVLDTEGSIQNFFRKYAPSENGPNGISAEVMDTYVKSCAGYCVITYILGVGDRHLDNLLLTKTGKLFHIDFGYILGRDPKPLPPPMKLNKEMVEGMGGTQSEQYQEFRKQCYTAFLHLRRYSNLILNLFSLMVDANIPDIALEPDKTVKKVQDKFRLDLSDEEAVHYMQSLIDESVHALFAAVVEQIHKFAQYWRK
Sequence of Serine/threonine-protein kinase Sgk1 (Homo sapiens) (O00141 whole entry): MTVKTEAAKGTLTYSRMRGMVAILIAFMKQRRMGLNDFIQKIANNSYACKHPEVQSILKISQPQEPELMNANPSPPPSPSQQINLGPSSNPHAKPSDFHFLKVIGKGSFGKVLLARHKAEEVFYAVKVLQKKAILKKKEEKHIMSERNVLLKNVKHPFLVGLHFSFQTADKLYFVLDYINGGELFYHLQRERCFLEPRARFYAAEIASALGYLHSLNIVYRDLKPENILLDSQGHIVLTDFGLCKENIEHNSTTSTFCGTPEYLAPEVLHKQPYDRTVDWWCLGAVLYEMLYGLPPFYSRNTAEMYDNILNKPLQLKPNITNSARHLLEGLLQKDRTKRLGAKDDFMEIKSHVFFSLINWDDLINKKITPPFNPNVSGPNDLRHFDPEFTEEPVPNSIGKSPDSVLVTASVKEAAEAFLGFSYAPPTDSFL
Sequence of Tyrosine-protein kinase receptor TYRO3 (Homo sapiens) (Q06418 whole entry): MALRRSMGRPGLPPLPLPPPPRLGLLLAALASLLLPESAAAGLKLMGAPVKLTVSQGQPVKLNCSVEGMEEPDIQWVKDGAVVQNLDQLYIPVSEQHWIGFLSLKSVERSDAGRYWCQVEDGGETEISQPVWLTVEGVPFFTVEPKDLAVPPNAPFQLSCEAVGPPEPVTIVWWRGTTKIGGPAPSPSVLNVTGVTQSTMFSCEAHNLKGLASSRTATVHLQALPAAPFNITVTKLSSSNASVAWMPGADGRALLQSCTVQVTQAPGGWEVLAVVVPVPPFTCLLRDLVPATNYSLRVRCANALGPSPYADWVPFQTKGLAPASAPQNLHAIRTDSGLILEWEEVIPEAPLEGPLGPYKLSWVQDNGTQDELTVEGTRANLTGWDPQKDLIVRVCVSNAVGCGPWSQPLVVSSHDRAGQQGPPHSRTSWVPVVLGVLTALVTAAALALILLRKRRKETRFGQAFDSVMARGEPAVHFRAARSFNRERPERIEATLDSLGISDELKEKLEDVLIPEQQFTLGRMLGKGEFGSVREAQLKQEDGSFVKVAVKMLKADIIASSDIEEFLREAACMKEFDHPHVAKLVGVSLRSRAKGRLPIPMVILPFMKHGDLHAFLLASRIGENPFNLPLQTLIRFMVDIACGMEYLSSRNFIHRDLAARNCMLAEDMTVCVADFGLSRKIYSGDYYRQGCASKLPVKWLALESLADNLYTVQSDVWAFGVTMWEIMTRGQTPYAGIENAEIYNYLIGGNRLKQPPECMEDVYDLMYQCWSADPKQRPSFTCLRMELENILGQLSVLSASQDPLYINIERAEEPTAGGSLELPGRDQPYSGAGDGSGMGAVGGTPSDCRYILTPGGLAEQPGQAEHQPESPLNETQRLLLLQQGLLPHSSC
Sequence of Ribosomal protein S6 kinase alpha-4 (Homo sapiens) (O75676 whole entry, looked up): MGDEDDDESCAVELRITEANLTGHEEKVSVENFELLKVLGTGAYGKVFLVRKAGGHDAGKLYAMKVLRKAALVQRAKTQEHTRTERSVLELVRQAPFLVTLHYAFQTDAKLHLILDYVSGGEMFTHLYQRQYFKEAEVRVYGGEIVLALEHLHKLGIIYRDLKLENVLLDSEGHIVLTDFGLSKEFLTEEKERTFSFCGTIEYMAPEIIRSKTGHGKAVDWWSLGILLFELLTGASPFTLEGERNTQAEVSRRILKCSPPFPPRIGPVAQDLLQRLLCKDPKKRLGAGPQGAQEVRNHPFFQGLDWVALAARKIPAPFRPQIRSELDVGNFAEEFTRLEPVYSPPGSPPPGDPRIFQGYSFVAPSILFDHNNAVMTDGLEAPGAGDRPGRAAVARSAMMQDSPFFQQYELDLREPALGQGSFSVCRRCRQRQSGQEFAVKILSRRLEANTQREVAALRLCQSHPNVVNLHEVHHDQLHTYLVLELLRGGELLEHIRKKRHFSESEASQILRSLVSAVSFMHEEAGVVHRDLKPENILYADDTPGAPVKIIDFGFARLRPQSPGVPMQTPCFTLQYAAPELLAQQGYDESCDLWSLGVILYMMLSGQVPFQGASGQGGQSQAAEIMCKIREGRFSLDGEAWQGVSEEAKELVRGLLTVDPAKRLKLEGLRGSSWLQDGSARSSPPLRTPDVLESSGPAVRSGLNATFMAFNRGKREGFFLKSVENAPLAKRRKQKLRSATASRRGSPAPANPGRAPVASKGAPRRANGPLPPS
Sequence of Phosphatidylinositol 5-phosphate 4-kinase type-2 alpha (Homo sapiens) (P48426 whole entry): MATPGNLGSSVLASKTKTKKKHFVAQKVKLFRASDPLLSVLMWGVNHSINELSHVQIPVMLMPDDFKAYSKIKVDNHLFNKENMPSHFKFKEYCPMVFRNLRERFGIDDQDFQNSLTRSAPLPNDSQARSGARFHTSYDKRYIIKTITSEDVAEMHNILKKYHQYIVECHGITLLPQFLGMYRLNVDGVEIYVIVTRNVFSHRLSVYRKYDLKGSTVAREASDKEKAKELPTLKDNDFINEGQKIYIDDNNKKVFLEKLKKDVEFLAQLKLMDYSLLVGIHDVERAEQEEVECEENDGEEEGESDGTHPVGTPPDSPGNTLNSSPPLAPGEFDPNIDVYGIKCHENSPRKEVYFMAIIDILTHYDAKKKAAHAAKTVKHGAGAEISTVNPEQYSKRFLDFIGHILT

CCC(F)(F)c1cc(N2CCC(S(C)(=O)=O)CC2)nc2sc(C(N)=O)c(N)c12 [BI-605906]
inactive: [1] 88% | [2] 109% | [3] 94% | [4] 115% | [5] 112% | [6] 67.2% | [7] 101% | [8]; Compound concentration 1.0 uM 94% | [8]; Compound concentration 10.0 uM 97% | [9] 91% | [10]; Compound concentration 1.0 uM 95% | [10]; Compound concentration 10.0 uM 80% | [11] 96% | [12]; Compound concentration 1.0 uM 92% | [12]; Compound concentration 10.0 uM 60%
